By IC50 is commonly meant the concentration needed to halve the response being measured.

In one test the target is T1, Bovine LOX (Bos taurus, UniProt P33072).
T1 sequence (P33072 170-418): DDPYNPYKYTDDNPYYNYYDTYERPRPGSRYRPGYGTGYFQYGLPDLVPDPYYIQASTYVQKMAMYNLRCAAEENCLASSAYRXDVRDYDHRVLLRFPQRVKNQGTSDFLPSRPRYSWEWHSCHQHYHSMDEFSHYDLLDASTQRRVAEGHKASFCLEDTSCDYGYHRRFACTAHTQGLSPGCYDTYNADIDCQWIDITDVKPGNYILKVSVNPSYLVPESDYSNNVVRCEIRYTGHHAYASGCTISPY
In words: LOX inhibition, Amplex Red oxidation assay. It is filed as biochemical. The procedure:
(§1) LOX and LOXL protein family members can be acquired as recombinant active proteins from commercial sources, or extracted from animal tissues like bovine aorta, tendons, pig skin; or prepared from cell cultures. […] The assay was developed using either 384 or 96 well format. Briefly, in a standard black, clear bottom 384 well plate assay 25 μL of a dilution of any of the isoenzymes and orthologues in 1.2 M urea, 50 mM sodium borate buffer (pH 8.2) were added into each well in the presence of 1 μM mofegiline and 0.5 mM pargyline (to inhibit SSAO and MAO-B and MAO-A, respectively; not necessary if the enzyme is from a recombinant or purified form). Test compounds were dissolved in DMSO and tested in a Concentration Response Curve (CRC) with 11 data points, typically in the micromolar or nanomolar range after incubation with the enzyme for 30 min at 37° C. 25 μL of a reaction mixture containing twice the KM concentration of putrescine (Sigma Aldrich, e.g. 20 mM for LOX and LOXL1 or 10 mM for LOXL2 and 4 mM for LOXL3 and LOXL4), 120 μM Amplex Red (Sigma Aldrich) and 1.5 U/mL horseradish peroxidase (Sigma Aldrich) prepared in 1.2 M urea, 50 mM sodium borate buffer (pH 8.2) were then added to the corresponding wells. The above volumes were doubled in the case of 96 wells plate. The fluorescence (RFU) was read every 2.5 min for 30 min at […] 37° C., excitation 565 nm and emission 590 (Optima; BMG labtech). The slope of the kinetics for each well was calculated using MARS data analysis software (BMG labtech) and this value was used to deduce the IC50 value (Dotmatics). The ability of the inventive compounds to inhibit the amine oxidase activity of LOX and other family members is shown in Table 4.

A further test addresses T2, Human recombinant LOXL4 (Homo sapiens, UniProt Q96JB6).
T2 sequence (Q96JB6 25-756): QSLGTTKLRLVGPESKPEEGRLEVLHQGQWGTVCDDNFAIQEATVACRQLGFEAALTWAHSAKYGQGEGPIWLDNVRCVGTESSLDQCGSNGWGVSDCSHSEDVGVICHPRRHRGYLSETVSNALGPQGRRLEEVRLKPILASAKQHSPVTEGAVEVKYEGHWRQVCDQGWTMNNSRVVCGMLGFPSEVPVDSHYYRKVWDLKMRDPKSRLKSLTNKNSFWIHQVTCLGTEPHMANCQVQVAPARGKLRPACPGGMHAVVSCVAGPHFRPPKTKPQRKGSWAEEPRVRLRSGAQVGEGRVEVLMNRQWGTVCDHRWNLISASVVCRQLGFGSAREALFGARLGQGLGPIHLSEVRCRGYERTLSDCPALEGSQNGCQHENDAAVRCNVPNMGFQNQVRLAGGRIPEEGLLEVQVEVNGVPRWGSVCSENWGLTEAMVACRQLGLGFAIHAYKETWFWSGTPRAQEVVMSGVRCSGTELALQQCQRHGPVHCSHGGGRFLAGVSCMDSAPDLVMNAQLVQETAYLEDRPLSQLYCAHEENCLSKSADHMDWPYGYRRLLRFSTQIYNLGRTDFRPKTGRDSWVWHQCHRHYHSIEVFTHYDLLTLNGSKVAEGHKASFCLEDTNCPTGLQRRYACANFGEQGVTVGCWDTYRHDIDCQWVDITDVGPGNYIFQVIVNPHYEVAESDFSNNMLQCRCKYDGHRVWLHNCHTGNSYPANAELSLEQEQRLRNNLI
In words: LOXL4 inhibition, Amplex Red oxidation assay. It is filed as biochemical. Here is the method:
as §1

The mark [1] stands for this setting: incubation with enzyme 30 min at 37° C, read-out: Bovine LOX Activity IC50.
[2] abbreviates: incubation with enzyme 30 min at 37° C, read-out: Human recombinant LOXL4 Activity IC50.

The structures appear in SMILES notation. Where two headings read alike, the source gives them in different places.

For the compound `N#CCCN` [BAPN, β-aminopropionitrile, reference compound], the IC50 on Bovine LOX (setting [1]) was 2200 nM; at Human recombinant LOXL4 (setting [2]) it was 300 nM.

For `NC/C=C(\F)C(F)(F)S(=O)(=O)c1ccccc1` [Compound 1, (Z)-3,4,4-trifluoro-4-(phenylsulfonyl)but-2-en-1-amine], the IC50 is 3700 nM against Bovine LOX and 300 nM on Human recombinant LOXL4.

Turning to `NC/C=C(\F)C(F)(F)S(=O)(=O)c1cccc2cccnc12` [Compound 2, (Z)-3,4,4-trifluoro-4-(quinolin-8-ylsulfonyl)but-2-en-1-amine], the IC50 at Bovine LOX (setting [1]) was found to be 8000 nM; on Human recombinant LOXL4 (setting [2]) it was 600 nM.

In the case of `CNc1ccccc1S(=O)(=O)C(F)(F)/C(F)=C/CN` [Compound 4, (Z)-2-((4-amino-1,1,2-trifluorobut-2-en-yl)sulfony1)-N-methylaniline], the IC50 on Bovine LOX (setting [1]) amounted to 4300 nM; at Human recombinant LOXL4 (setting [2]), 700 nM.

For `Cc1ccccc1S(=O)(=O)C(F)(F)/C(F)=C/CN` [Compound 5, (Z)-3,4,4-trifluoro-4-(o-tolylsulfonyl)but-2-en-1-amine], the IC50 at Bovine LOX (setting [1]) was found to be 3800 nM.

Regarding `Cc1ccc(S(=O)(=O)C(F)(F)/C(F)=C/CN)cc1` [Compound 6, (Z)-3,4,4-trifluoro-4-tosylbut-2-en-1-amine], the IC50 at Bovine LOX (setting [1]) amounted to 3500 nM; on Human recombinant LOXL4 (setting [2]) it was 300 nM.

On to `NC/C=C(\F)C(F)(F)S(=O)(=O)Cc1ccccc1` [Compound 8, (Z)-4-(benzylsulfony1)-3,4,4-trifluorobut-2-en-1-amine], for which the results for the IC50 on Bovine LOX (setting [1]) and on Human recombinant LOXL4 (setting [2]) were 2500 nM and 100 nM, respectively.

Turning to `NC/C=C(\F)C(F)(F)[S+]([O-])c1ccccc1` (stereo not shown) [Compound 9, (Z)-3,4,4-trifluoro-4-(phenylsulfinyl)but-2-en-1-amine], the results for the IC50 on Bovine LOX (setting [1]) and on Human recombinant LOXL4 (setting [2]) were 6500 nM and 1100 nM, respectively.

Consider `CS(=O)(=O)c1ccc(COc2ccccc2S(=O)(=O)C(F)(F)/C(F)=C/CN)cc1` [Compound 10, (Z)-3,4,4-trifluoro-4-((2-((4-(methylsulfonyl)benzyl)oxy)phenyl)sulfonyl) but-2-en-1-amine], for which the IC50 is 2700 nM on Bovine LOX (setting [1]) and 100 nM at Human recombinant LOXL4 (setting [2]).

On to `COc1cccc(S(=O)(=O)C(F)(F)/C(F)=C/CN)c1` [Compound 12, (Z)-3,4,4-trifluoro-4-((3-methoxyphenyl)sulfonyl)but-2-en-1-amine], for which the IC50 turned out to be 5100 nM on Bovine LOX (setting [1]) and 300 nM at Human recombinant LOXL4 (setting [2]).

Consider `NC/C=C(\F)C(F)(F)S(=O)(=O)c1cccs1` [Compound 14, (Z)-3,4,4-trifluoro-4-(thiophen-2-ylsulfonyl)but-2-en-1-amine], for which the concentration for half-maximal inhibition (IC50) on Bovine LOX (setting [1]) stood at 4500 nM; on Human recombinant LOXL4 (setting [2]) it was 200 nM.

For `CS(=O)(=O)c1cccc(CS(=O)(=O)C(F)(F)/C(F)=C/CN)c1` [Compound 17, (Z)-3,4,4-trifluoro-4-((3-(methylsulfonyl)benzyl)sulfonyl)but-2-en-1-amine], the half-inhibitory concentration (IC50) on Bovine LOX (setting [1]) came to 3500 nM; at Human recombinant LOXL4 (setting [2]), 200 nM.

In the case of `NC/C=C(\F)C(F)(F)S(=O)(=O)C1CCCC1` [Compound 19, (Z)-4-(cyclopentylsulfony1)-3,4,4-trifluorobut-2-en-1-amine], the half-maximal inhibitory concentration (IC50) was 2500 nM on Bovine LOX (setting [1]) and 500 nM at Human recombinant LOXL4 (setting [2]).

The values above are taken from patent US20220251036A1, “DIFLUOROHALOALLYLAMINE SULFONE DERIVATIVE INHIBITORS OF LYSYL OXIDASES, METHODS OF PREPARATION, AND USES THEREOF” (PHARMAXIS LTD., priority 2019, published 2022).
